Experiments:
endothiapepsin [1] = target: T1, endothiapepsin (Cryphonectria parasitica, UniProt P11838); assay: fluorescence-based protease assay adapted from HIV-protease assay; type: biochemical
T1 sequence (P11838 90-419): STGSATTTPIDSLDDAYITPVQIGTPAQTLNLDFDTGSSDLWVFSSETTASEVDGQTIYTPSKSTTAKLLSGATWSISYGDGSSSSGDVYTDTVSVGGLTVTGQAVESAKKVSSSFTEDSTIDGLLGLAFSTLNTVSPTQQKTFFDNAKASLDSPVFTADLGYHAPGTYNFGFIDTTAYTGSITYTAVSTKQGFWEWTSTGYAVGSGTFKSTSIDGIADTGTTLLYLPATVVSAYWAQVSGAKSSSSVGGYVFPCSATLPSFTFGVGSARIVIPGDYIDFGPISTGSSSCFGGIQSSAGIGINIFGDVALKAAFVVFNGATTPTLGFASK

endothiapepsin [2] = target: T1, endothiapepsin; assay: as above; type: biochemical; remark: listed apart in the source

Work on `Cc1cc(C)c(CCNC(=O)[C@@H](N)Cc2c[nH]c3ccccc23)c(C)c1` [(S)-2] yielded a Ki (endothiapepsin [1]) of 6.1 ± 0.4 µM and an IC50 (endothiapepsin [2]) of 12.9 ± 0.7 µM.
For `Cc1cc(C)c(CCOC(=O)[C@@H](N)Cc2c[nH]c3ccccc23)c(C)c1` [(S)-3], the Ki (endothiapepsin [1]) was 13.5 ± 1.9 µM and the IC50 (endothiapepsin [2]) was 28.7 ± 4.1 µM.
Work on `Cc1cc(C)c(Cc2csc([C@@H](N)Cc3c[nH]c4ccccc34)n2)c(C)c1` [(S)-4] yielded a Ki (endothiapepsin [1]) of 91.2 ± 5.4 µM and an IC50 (endothiapepsin [2]) of 194 ± 11.4 µM.

— publication PMC6282583 (Chemmedchem, 2018)
